Source: patent US7736537B1, “Replacement solvents having improved properties for refrigeration flushes” (Mainstream Engineering Corp., priority 2008, dated 2010)
Read-outs that look alike come from different tables or passages of the source.

What was measured:
[1] = Source text: Parameters such as the lethal dose 50 (LD50), lethal concentration 50 (LC50), cardiac sensitization, skin irritation, and mutagenicity (e.g., via the Ames test) can be used as toxicity metrics. The LDn or LCn abbreviations, where n is the percent lethality, are used for the dose of a toxicant lethal to n % of a test population. […] Cardiac sensitization is a measure of the ability of a compound to cause cardiac arrhythmia under stress.
The property modification components are chosen from a list of potential replacement solvents. These compounds included halogenated compounds such as halogenated acetates, alcohols, alkanes, cycloalkanes, alkenes, cycloalkenes, amines, anhydrides, aromatics, carbonyls, diones, esters, ethers, heterocyclics and ketones.

[2] = solubility parameter, Table 1; cited from earlier work
[3] = Table 1; cited from earlier work
[4] = cardiac sensitization relative to CFC-113

Molecule	CS/CS113 [1, 4]	SP [2]	BP [3] [C.]	CS/CS113 [1]
1-bromo-bis(perfluoromethyl)ethylene	42.7	7.06 (cal/cm^3)^1/2	45.1	–
OC(C(F)(F)F)(C(F)(F)F)C(F)(F)F [1,1,1,3,3,3-hexafluoro-2-(trifluoromethyl)-2-propanol]	61.2	6.84 (cal/cm^3)^1/2	46.0	–
FC(F)(Br)C=C(C(F)(F)F)C(F)(F)F [1,1,1,4,4-pentafluoro-4-bromo-2-trifluoromethyl-2-butene]	105.5	6.77 (cal/cm^3)^1/2	61.0	–
O=C(CC(=O)C(F)(F)F)C(F)(F)F [1,1,1,5,5,5-hexafluoro-2,4-pentanedione]	–	6.90 (cal/cm^3)^1/2	69.9	140.5
O=C(CC(F)(F)F)C(F)(F)Br [1,1,4,4,4-pentafluoro-1-bromo-2-butanone]	17.1	7.89 (cal/cm^3)^1/2	89.0	–
O=C(CC(F)(F)F)CC(F)(F)Br [1,1,5,5,5-pentafluoro-1-bromo-3-pentanone]	34.2	7.89 (cal/cm^3)^1/2	118.4	–
FC(F)(F)C(F)(F)C(F)(F)C(F)(F)/C=C\C(F)(F)C(F)(F)C(F)(F)C(F)(F)F [1,2-(Z)-bis(perfluoro-n-butyl)ethylene]	1188.5	6.81 (cal/cm^3)^1/2	132.0	–
FC1(F)C(Cl)=C(Cl)C(F)(F)C(F)(F)C1(F)F [1,2-dichloro-3,3,4,4,5,5,6,6-octafluoro-cyclohexene]	15.5	7.55 (cal/cm^3)^1/2	123.8	–
FC1(F)C(Cl)=C(Cl)C(F)(F)C1(F)F [1,2-dichloro-hexafluoro-cyclopentene]	9.9	7.90 (cal/cm^3)^1/2	90.0	–
FC(Cl)C(F)(F)C(F)(F)Cl (stereo not shown) [1,3-dichloro-1,1,2,2,3-pentafluoropropane]	9.2	7.31 (cal/cm^3)^1/2	52.7	–
FC1=C(OCC(F)(F)F)C(F)(F)C(F)(F)C(F)(F)C1(F)F [1-(2,2,2-trifluoroethoxy)nonafluoro-cyclohexene]	70.2	7.51 (cal/cm^3)^1/2	113.7	–
C=C(OC(F)(F)Br)C(F)(F)F [1-(bromodifluoromethoxy)-1-(trifluoromethyl)ethene]	27.7	7.67 (cal/cm^3)^1/2	66.3	–
FC(OC(F)(F)Br)=C(C(F)(F)F)C(F)(F)F [1-(bromodifluoromethoxy)-2-(trifluoromethyl)-1,3,3,3-tetrafluoro-1-propene]	187.0	7.06 (cal/cm^3)^1/2	78.6	–
FC(F)(Br)OC=C(C(F)(F)F)C(F)(F)F [1-(bromodifluoromethoxy)-2-(trifluoromethyl)-3,3,3-trifluoro-1-propene]	151.6	7.26 (cal/cm^3)^1/2	78.3	–
FC(Br)=C(C(F)(F)F)C(F)(F)F [1-bromo-1,3,3,3-tetrafluoro-2-(trifluoromethyl)-1-propene]	71.9	6.78 (cal/cm^3)^1/2	51.9	–
FC(F)(F)c1cc(C(F)(F)F)c(Br)c(C(F)(F)F)c1 [1-bromo-2,4,6-tris(trifluoromethyl)benzene]	113.0	7.76 (cal/cm^3)^1/2	173.4	–
FC(F)(F)C(=CBr)C(F)(F)F [1-bromo-2-(trifluoromethyl)-3,3,3-trifluoropropene]	49.4	6.95 (cal/cm^3)^1/2	49.3	–
FC(F)OC(Cl)C(F)(F)F (stereo not shown) [1-chloro-2,2,2-trifluoroethyl difluoromethyl ether, reference compound]	50.2	7.58 (cal/cm^3)^1/2	48.8	–
COC(F)=C(C(F)(F)F)C(F)(F)F [1-methoxy-2-trifluoromethyl-1,3,3,3-tetrafluoro-1-propene]	154.6	7.09 (cal/cm^3)^1/2	44.5	–
FC1C(F)C(F)(F)C(F)(F)C(F)C1(F)F (stereo not shown) [1H,2H,4H-nonafluorocyclohexane]	18.5	7.02 (cal/cm^3)^1/2	65.0	–
FC(F)=C(F)OC(F)(F)C(F)(F)Br [2-bromo-1,1,2,2-tetrafluoroethoxy-trifluoroethene]	33.0	7.30 (cal/cm^3)^1/2	81.9	–
C=C(Br)C(F)(F)C(F)(F)F [2-bromo-3,3,4,4,4-pentafluorobutene]	10.5	7.19 (cal/cm^3)^1/2	66.1	–
Fc1c(F)c(F)c(C(F)(F)F)c(Br)c1F [2-bromoheptafluorotoluene]	21.5	7.64 (cal/cm^3)^1/2	151.3	–

Molecule	CS/CS113 [1, 4]	SP [2]	BP [3] [C.]	CS/CS113 [1]
FC(F)OC(F)(F)C(F)Cl (stereo not shown) [2-chloro-1,1,2-trifluoroethyl difluoromethyl ether, reference compound]	–	7.71 (cal/cm^3)^1/2	56.7	35.5
CCOC(F)(F)C(F)Cl (stereo not shown) [2-chloro-1,1,2-trifluoroethyl ethyl ether]	15.0	7.50 (cal/cm^3)^1/2	88.9	–
FC(C(F)C(F)(F)C(F)(F)F)C(F)(F)F (stereo not shown) [2H,3H-decafluoropentane]	91.5	6.84 (cal/cm^3)^1/2	55.0	–
OCC(C(F)(F)F)(C(F)(F)F)C(F)(F)F [3,3,3-trifluoro-bis-2,2-(trifluoromethyl)-1-propanol]	40.7	6.81 (cal/cm^3)^1/2	86.1	–
FC(F)(F)C(F)(F)C(Cl)Cl [3,3-dichloro-1,1,1,2,2-pentafluoropropane]	16.7	7.26 (cal/cm^3)^1/2	48.5	–
FC(F)=C(F)C(F)(Br)C(F)(F)F (stereo not shown) [3-bromo-1,1,2,3,4,4,4-heptafluorobutene]	21.9	6.75 (cal/cm^3)^1/2	47.5	–
FC=CC(F)(F)Br [3-bromo-1,3,3-trifluoropropene]	12.9	7.73 (cal/cm^3)^1/2	41.5	–
C=C(F)C(F)(F)Br [3-bromo-2,3,3-trifluoropropene]	6.1	7.66 (cal/cm^3)^1/2	41.6	–
C=C(F)C(F)(Br)C(F)(F)F (stereo not shown) [3-bromo-2,3,4,4,4-pentafluorobutene]	4.9	7.20 (cal/cm^3)^1/2	69.7	–
C=CC(F)(F)Br [3-bromo-3,3-difluoro-1-propene]	5.9	7.89 (cal/cm^3)^1/2	42.0	–
C=C(C(F)(F)F)C(F)(F)Br [3-bromo-3,3-difluoro-2-(trifluoromethyl)-propene]	15.0	7.24 (cal/cm^3)^1/2	49.7	–
Fc1c(F)c(Br)c(F)c(C(F)(F)F)c1F [3-bromoheptafluorotoluene]	21.1	7.66 (cal/cm^3)^1/2	153.0	–
FC(=C(C(F)(F)F)C(F)(F)F)C(F)(F)Br [4-bromo-1,1,1,3,4,4-hexafluoro-2-(trifluoromethyl)-2-butene]	103.2	6.51 (cal/cm^3)^1/2	68.1	–
FC(F)(Br)C=C(C(F)(F)F)C(F)(F)F [4-bromo-1,1,1,4,4-pentafluoro-2-(trifluoromethyl)-2-butene]	105.5	6.74 (cal/cm^3)^1/2	61.0	–
FC(F)=C(F)C(F)(F)C(F)(F)Br [4-bromo-1,1,2,3,3,4,4-heptafluorobutene]	23.4	6.78 (cal/cm^3)^1/2	51.5	–
FC(F)=C(F)C(F)(F)CBr [4-bromo-1,1,2,3,3-pentafluorobutene]	25.3	7.79 (cal/cm^3)^1/2	80.4	–
C=C(F)C(F)(F)C(F)(F)Br [4-bromo-2,3,3,4,4-pentafluorobutene]	6.0	7.21 (cal/cm^3)^1/2	69.2	–
C=CC(F)(F)C(F)(F)Br [4-bromo-3,3,4,4-tetrafluoro-1-butene]	5.8	7.44 (cal/cm^3)^1/2	55.0	–
C=CC(F)(Cl)C(F)(F)Br (stereo not shown) [4-bromo-3-chloro-3,4,4-trifluoro-1-butene]	0.8	7.76 (cal/cm^3)^1/2	99.7	–
Fc1c(F)c(C(F)(F)F)c(F)c(F)c1Br [4-bromoheptafluorotoluene]	37.9	7.66 (cal/cm^3)^1/2	151.3	–
FC(F)(F)COCC(F)(F)Br [(2,2,2-trifluoroethyl)(2-bromo-2,2-difluoroethyl)ether]	52.1	7.64 (cal/cm^3)^1/2	73.0	–
F/C(OC(F)(F)Br)=C(/F)C(F)(F)F [(E)-1-(bromodifluoromethoxy)-1,2,3,3,3-pentafluoro-1-propene]	70.1	7.25 (cal/cm^3)^1/2	65.2	–
FC(F)(Cl)C(F)(Cl)Cl [CFC-113, 1,1,2-trichloro-1,2,2-trifluoroethane, reference compound]	–	–	47.6	–
